Patent US4835172A, “Novel benzamides, intermediates and process for the preparation and therapeutic use thereof” (Societe D'Etudes Scientifiques et Industrielles de …, priority 1985, dated 1989)
≈ marks a conversion by molar mass, not a printed value. Like-named read-outs stand apart in the source and are kept apart here.

Legend:
D2 receptors = biological target: T1, D2 receptors (Rattus norvegicus, UniProt P61169); test: displacement of 3H-spiperone, ligand of D2 receptors, in vitro on rat striatum preparations; format: binding; conditions: read-out: inhibiting concentration (50), I.C. 50, relative to 3H-spiperone
T1 construct: in vitro tests on rat striatum preparations; from tissue; host or cells: rat striatum preparations
T1 sequence (P61169 whole entry): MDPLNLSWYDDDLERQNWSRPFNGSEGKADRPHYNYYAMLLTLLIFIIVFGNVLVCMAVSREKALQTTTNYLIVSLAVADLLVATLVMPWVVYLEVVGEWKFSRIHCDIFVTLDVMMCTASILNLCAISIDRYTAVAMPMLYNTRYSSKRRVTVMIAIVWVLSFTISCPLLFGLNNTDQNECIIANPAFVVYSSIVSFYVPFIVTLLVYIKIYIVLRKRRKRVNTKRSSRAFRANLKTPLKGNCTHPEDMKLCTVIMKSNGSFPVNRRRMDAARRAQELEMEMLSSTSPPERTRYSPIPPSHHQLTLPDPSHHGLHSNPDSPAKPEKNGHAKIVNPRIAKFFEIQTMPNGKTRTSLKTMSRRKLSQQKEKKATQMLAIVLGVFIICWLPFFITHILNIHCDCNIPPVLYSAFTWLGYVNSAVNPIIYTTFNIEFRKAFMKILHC
Excerpt: (§1) These tests which consisted of studying the displacement of specific ligands of dopamine receptors by compounds of the invention. The compound in Example I was found, for instance, to have an inhibiting concentration (50), I.C.

D1 receptors = test: displacement of 3H-piflutixol, ligand of D1 receptors, in vitro on rat striatum preparations; format: binding
Excerpt: as §1

prolactin = prolactin content in serum after subcutaneous administration in the male rat; format: in vivo
Experimental: The blood samples had been taken 10 and 30 minutes after administration of the compound, whereas the same dose of a reference antidopaminergic (Sulpiride) studied under the same conditions, multiplies the amount of basic prolactinaemia by a factor of about 10.

[1] = test system: reserpine-induced motor depression and ptosis; test: reserpine model of behavioural depression; format: in vivo, mice or rats
Experimental: In view of this activating property of the compounds of the invention, animal models of behavioural depression were used to investigate a possible antidepressive effect. For example, mice pre-treated with reserpine (5 mg/kg) intraperitoneally 18 hours before the test, or rats receiving reserpine in the nucleus accumbens 1 μg/24 h) were tested.

acute toxicity in mice = conditions: mouse, in vivo
Experimental: In the course of this pharmacological research a toxicological study of the most preferred compound was carried out.

solubility in water = format: physicochemical

SMILES: CCN(CC)CCNC(=O)c1cc(Cl)c(NC2=NCCN2)cc1OC [Example I, N-[(DIETHYL AMINO) ETHYL] 2-METHOXY 4-[(1-H 4,5-DIHYDRO 2-IMIDAZOLYL) AMINO] 5-CHLORO BENZAMIDE]
- IC50 (D2 receptors): > 100 µM
- displacement of 3H-piflutixol (D1 receptors): no displacement
- increase in prolactin content in serum (prolactin; 1 mg/kg s.c., eight rats, 10 and 30 minutes after administration): no increase in prolactin content
- activity compared with imipramine against reserpine ([1]; 0.1 mg/kg s.c. versus imipramine 30 mg/kg i.p.): as active at that dose as 30 mg/kg of imipramine
- effect on reserpine-induced motor depression and ptosis ([1]; 0.1 mg/kg s.c., reserpine 5 mg/kg i.p. (mice) or in nucleus accumbens 1 μg/24 h (rats)): counteracts motor depression and ptosis
- LD50 (acute toxicity in mice; ip, read-out: LD 50 i.p.): 37.7 to 40.8 mg/kg
- LD50 (acute toxicity in mice; iv, read-out: LD 50 i.v.): 12.8 to 14.4 mg/kg
- LD50 (acute toxicity in mice; po, per os, read-out: LD 50 per os): 165 to 180 mg/kg
- LD50 (acute toxicity in mice; sc, read-out: LD 50 s.c.): 52 to 54 mg/kg

SMILES: CCN1CCCC1CNC(=O)c1cc(S(N)(=O)=O)ccc1OC (stereo not shown) [Sulpiride, reference compound]
- factor by which the amount of basic prolactinaemia is multiplied (prolactin; same dose (1 mg/kg) and same conditions): about 10

SMILES: COc1cc(NC2=NCCO2)c(Cl)cc1C(=O)NCC1CCCN1CC1CC1 (stereo not shown) [XL, N-(1-CYCLOPROPYLMETHYL 2-PYRROLIDINYLMETHYL) 2-METHOXY 4-[(4,5-DIHYDRO 2-OXAZOLYL) AMINO] 5-CHLORO BENZAMIDE]
- solubility (solubility in water; monohydrochloride prepared for immediate use, read-out: soluble in water, monohydrochloride): ~320 mg/mL (≈ 786 mM)

SMILES: C=CCOc1cc(NC2=NCCN2)c(Cl)cc1C(=O)NCCN(CC)CC [XXXIII, N-(DIETHYLAMINO ETHYL) 2-ALLYLOXY 4-[(1-H 4,5 DIHYDRO 2-IMIDAZOLYL) AMINO] 5-CHLORO BENZAMIDE]
- solubility (solubility in water; hydrochloride prepared for immediate use, read-out: soluble in water, hydrochloride): 200 mg/mL (≈ 508 mM)
- solubility (solubility in water; the product (base), read-out: insoluble in water): 10 mg/mL (≈ 25.4 mM)
